Earlier results, collected in US20260256742A1, “ANDROGEN RECEPTOR ANTAGONISTS FOR THE TREATMENT OF PATIENTS WITH BIOCHEMICAL RECURRENCE OF HORMONE SENSITIVE PROSTATE CANCER” (BAYER CONSUMER CARE AG, priority 2023, published 2026).

Columns and labels:
[1] = system: nmCRPC; details: in combination with ADT, patients with nmCRPC; cited from earlier work
[2] = biological target: T878A AR mutant (Homo sapiens, UniProt P10275, T878A); details: cited from earlier work
[3] = single oral administration; cited from earlier work
[4] = in vivo; cited from earlier work

T878A AR mutant, sequence (P10275 whole entry T878A): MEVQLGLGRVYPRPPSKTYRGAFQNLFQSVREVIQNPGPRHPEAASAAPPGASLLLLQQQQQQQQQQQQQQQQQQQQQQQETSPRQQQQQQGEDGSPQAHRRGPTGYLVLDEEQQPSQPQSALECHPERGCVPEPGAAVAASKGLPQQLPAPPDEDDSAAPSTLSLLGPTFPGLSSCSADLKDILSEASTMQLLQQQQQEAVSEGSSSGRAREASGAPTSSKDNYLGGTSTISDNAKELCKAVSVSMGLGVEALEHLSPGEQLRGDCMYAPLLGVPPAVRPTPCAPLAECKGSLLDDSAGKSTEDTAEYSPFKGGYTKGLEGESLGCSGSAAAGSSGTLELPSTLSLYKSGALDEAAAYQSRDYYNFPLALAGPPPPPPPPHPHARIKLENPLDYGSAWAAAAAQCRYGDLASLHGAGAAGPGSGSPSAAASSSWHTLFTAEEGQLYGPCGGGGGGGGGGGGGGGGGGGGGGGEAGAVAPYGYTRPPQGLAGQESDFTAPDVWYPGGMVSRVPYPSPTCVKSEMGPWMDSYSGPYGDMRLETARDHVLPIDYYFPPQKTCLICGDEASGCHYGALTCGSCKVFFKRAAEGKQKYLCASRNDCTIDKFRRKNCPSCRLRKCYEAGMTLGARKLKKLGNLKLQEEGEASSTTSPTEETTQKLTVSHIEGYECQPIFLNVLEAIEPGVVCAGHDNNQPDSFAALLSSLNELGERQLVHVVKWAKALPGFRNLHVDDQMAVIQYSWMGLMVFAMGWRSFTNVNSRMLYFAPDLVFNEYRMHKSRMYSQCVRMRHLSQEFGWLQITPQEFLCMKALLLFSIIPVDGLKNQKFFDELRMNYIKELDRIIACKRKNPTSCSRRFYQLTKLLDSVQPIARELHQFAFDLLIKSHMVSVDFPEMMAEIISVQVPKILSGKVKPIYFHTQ

| Structure (SMILES) | metastatic free survival (MFS) [1] | overall survival (OS) [1] | also measured |
| --- | --- | --- | --- |
| CNC(=O)c1ccc(N2C(=S)N(c3cnc(C#N)c(C(F)(F)F)c3)C(=O)C23CCC3)cc1F [apalutamide] | significantly increased | significantly increased | – |
| CC(C)(O)C(=O)Nc1ccc([N+](=O)[O-])c(C(F)(F)F)c1 [hydroxyflutamide] | – | – | action in T878A AR mutant [2]: AR agonists |
| CC(O)c1cc(C(=O)N[C@@H](C)Cn2ccc(-c3ccc(C#N)c(Cl)c3)n2)[nH]n1 (some centres unmarked) [[^14C]-darolutamide] | – | – | exposure in prostate tissue [3]: higher; tissue distribution [3]: wide and homogenous distribution in all tissues except the brain |
| CNC(=O)c1ccc(N2C(=S)N(c3ccc(C#N)c(C(F)(F)F)c3)C(=O)C2(C)C)cc1F [enzalutamide] | significantly increased | significantly increased | – |
| CC(Cn1ccc(-c2ccc(C#N)c(Cl)c2)n1)NC(=O)c1cc(C(C)O)[nH]n1 (single isomer, unassigned) [(S,R) diastereoisomer] | – | – | elimination compared with the other diastereoisomer [4]: faster elimination |
